Here are results for one compound from patent US20070031482A1, “PDT treatment method for cellulites and cosmetic use” (CeramOptec Industries, Ind., priority 2005, published 2007).

The subject of one series is cellulites. The experiment in a line: PDT treatment of cellulites with Temoporfin solution by Mesotherapy and diode laser (Example 1). In kind it is in vivo, patient. The note with it: 1 session per area, followed by appropriate physiotherapy / complementary session (ultrasound, lymph-drainage, electro-stimulation); evaluation after 30 days. The method, then: A patient having cellulites is treated with Temoporfin in several sessions. The variables in this treatment program are as follows: • 1.—A determination of the grade of cellulites in the patient. • 2.—A determination of the dose and concentration of Temoporfin and to confirm that it produces an improvement on the cellulites, and to further insure that it is possible to apply it directly by Mesotherapy without the need of systemic introduction. • 3.—A determination as to the potency of Temoporfin based on the time of application to the time of laser application; and • 4.—A determination as to accompanying treatments. In this EXAMPLE, the patient is administered the Temoporfin solution as follows: In all sequences, the treatment consists 1 session only per area to be treated, and, if necessary, it is repeated in 30 days. In general, it was observed that only 1 session followed by appropriate physiotherapy, a complementary session (like ultrasound, lymph-drainage, isotonic and isometric electro-stimulation), was usually sufficient in more than 80% of the patients. If it was necessary to repeat it, an evaluation is done after 30 days. Table 2 presents further information as to the stage of cellulite, concentration of mTHPC (Temoporfin), dose, surface area being treated; strength, power level and time of laser radiation application. [table] […]

The conditions of series [1]: cited from earlier work.
For series [2] the following is noted: without light activation; cited from earlier work.

In the case of `Oc1cccc(-c2c3nc(c(-c4cccc(O)c4)c4ccc([nH]4)c(-c4cccc(O)c4)c4nc(c(-c5cccc(O)c5)c5ccc2[nH]5)CC4)C=C3)c1` [Temoporfin], the “patients in whom only 1 session was usually sufficient” value in the series on cellulites was “more than 80 % of the patients”. Besides, the solubility in triglycerides result in series [1] is on record as “not soluble in triglycerides”. The “effect in the dark” value in series [2] is “totally innocuous and inactive in the dark”.
